Test results as given in ChEMBL document CHEMBL1201862, “PubChem BioAssay data set” (2004).
Calls of active or inactive are those of the source.

Experiments:
[1] = molecular target: Adenosylmethionine-8-amino-7-oxononanoate aminotransferase (Mycobacterium tuberculosis, UniProt P9WQ81); experiment: Mycobacterium tuberculosis BioA enzyme inhibitor Measured in Biochemical System Using Plate Reader - 2163-02_Inhibitor_Dose_CherryPick_Activity.; format: functional, Mycobacterium tuberculosis UT205
[2] = molecular target: T1, Sentrin-specific protease 1 (Homo sapiens, UniProt Q9P0U3); experiment: potency of human SENP1 inhibitors, dose response, biochemical, kinetic FRET (AID 651697); format: functional; conditions: read-out: IC50_Mean
T1 sequence (Q9P0U3 whole entry): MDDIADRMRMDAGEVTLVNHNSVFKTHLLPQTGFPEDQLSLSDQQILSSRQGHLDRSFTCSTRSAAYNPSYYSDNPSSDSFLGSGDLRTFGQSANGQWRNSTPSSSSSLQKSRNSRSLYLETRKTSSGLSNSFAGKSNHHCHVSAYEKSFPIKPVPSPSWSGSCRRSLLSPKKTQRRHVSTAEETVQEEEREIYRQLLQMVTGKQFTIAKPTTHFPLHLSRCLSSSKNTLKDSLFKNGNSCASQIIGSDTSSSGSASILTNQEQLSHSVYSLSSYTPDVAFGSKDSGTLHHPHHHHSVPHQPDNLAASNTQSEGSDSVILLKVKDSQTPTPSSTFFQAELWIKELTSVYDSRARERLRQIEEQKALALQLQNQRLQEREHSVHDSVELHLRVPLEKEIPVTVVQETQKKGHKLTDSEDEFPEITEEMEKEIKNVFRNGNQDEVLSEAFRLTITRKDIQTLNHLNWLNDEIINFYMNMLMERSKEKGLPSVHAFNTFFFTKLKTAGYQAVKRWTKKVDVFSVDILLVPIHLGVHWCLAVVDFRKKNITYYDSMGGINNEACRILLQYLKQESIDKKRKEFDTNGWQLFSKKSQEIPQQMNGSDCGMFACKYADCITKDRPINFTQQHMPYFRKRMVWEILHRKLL

[3] = molecular target: T1, Sentrin-specific protease 1; experiment: Dose response confirmation of small molecule inhibitors of the catalytic domain of the SUMO protease, SENP1 in a FRET assay.; format: functional; conditions: read-out: IC50_Mean
[4] = inhibitors of firefly luciferase expression or activity, dose response, H4 neuroglioma cells, luminescence (AID 1990); format: functional, cell-based
[5] = Luminescence Cell-Based Dose Response HTS to Identify Inhibitors of 5'UTR Stem-Loop Driven Prion Protein mRNA Translation in H4 Neuroglioblastoma Cells. [Related pubchem assays: 1827 (Project Summary), 1813 (Primary HTS)]; format: functional
[6] = inhibitors of SNCA 5'UTR-driven reporter translation, confirmation, H4 neuroglioma cells, luminescence (AID 1988); format: functional, cell-based
Melanocortin receptor 4 = Melanocortin receptor 4 (Homo sapiens, UniProt P32245); experiment: MC4R antagonist potency on cAMP, dose response, cell-based, TR-FRET, biased antagonists (AID 602298); format: functional;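 note: antagonist potency against agonist-stimulated cAMP production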
[7] = nonselective inhibitors of cellular cAMP signaling, dose response, counter-screen for MC4R biased antagonist project, cell-based, TR-FRET cAMP detection (AID 602305); format: functional;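 note: U2OS cells stimulated with forskolin near its EC80 as the cAMP inducer; potency is for inhibition of forskolin-stimulated cAMP signaling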
Beta-galactosidase = Beta-galactosidase (Escherichia coli, UniProt Q8VNN2); experiment: PubChem AID 485352; format: functional
[8] = molecular target: T2, Type-1 angiotensin II receptor (Homo sapiens, UniProt P30556); experiment: AT1 receptor antagonists, dose response, selectivity assay for APJ receptor antagonist project, cell-based, uHTS hits (AID 463214); format: functional;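 note: antagonist potency against angiotensin II stimulated AT1 response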
T2 sequence (P30556 whole entry): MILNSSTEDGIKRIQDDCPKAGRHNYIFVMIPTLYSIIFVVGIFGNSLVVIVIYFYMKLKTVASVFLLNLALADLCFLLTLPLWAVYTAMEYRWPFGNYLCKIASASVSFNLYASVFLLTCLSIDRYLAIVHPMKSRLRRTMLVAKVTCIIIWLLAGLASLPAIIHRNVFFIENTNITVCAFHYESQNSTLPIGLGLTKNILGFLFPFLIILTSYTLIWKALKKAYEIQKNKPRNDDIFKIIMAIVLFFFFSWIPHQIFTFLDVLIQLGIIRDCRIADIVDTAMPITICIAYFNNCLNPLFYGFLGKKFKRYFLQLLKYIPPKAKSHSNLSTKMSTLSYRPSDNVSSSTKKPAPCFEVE

[9] = molecular target: SWI/SNF-related matrix-associated actin-dependent regulator of chromatin subfamily A member 2 (Homo sapiens, UniProt P51531); experiment: Luminescence-based cell-based high throughput dose response assay to identify activators of the function of SWI/SNF related, matrix associated, actin dependent regulator of chromatin, subfamily a, member 2 (SMARCA2, BRM).; format: functional
[10] = Counterscreen for activators of the function of SWI/SNF related, matrix associated, actin dependent regulator of chromatin, subfamily a, member 2 (SMARCA2, BRM): Luminescence-based cell-based high throughput dose response assay to identify non-selective compounds using the VP16 reporter assay.; format: functional
HeLa = experiment: HeLa cell cytotoxicity, dose response, cytotoxicity control for MITF activator project, CellTiter-Glo luminescence, cherry-pick samples (AID 540259); format: functional, cell-based; conditions: Homo sapiens
Large T antigen = Large T antigen (Simian virus 40, UniProt P03070); format: functional, Betapolyomavirus macacae;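 note: Confirmatory-stage PubChem screen for compounds that inhibit SV40 T antigen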
[11] = molecular target: T3, Endoribonuclease toxin MazF (Escherichia coli K-12, UniProt P0AE70); experiment: MazF toxin RNase activators, dose response, biochemical, fluorescence, single-stranded RNA substrate, uHTS hits (AID 588481); format: functional
T3 sequence (P0AE70 whole entry): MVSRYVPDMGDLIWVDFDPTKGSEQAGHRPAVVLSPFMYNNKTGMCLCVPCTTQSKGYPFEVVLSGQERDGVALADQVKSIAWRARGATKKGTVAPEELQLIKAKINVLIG

[12] = molecular target: T3, Endoribonuclease toxin MazF; experiment: fluorescent RNA oligo signal without MazF, dose response, counter-screen for MazEF activator project, biochemical, fluorescence, single-stranded RNase substrate (AID 588502); format: functional
[13] = AlphaScreen signal interference compounds, dose response, artefact control for ARNT-TACC3 interaction inhibitor project, biochemical, luminescence, cherry-pick (AID 651705); format: functional;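 note: AlphaScreen bead proximity signal that flags compounds interfering with the detection technology; potency reflects signal decrease which marks the compound as an assay artifact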
[14] = molecular target: T4, Mitochondrial peptide methionine sulfoxide reductase (Bos taurus, UniProt P54149); format: functional;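 note: absorbance read-out, biochemical high-throughput dose-response screen for MsrA inhibitors, confirmatory; recombinant bovine MsrA coupled to E. coli TrxB with NADPH and selenocystamine; potency is for inhibitors of MsrA activity on DMSO substrate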
T4 sequence (P54149 whole entry): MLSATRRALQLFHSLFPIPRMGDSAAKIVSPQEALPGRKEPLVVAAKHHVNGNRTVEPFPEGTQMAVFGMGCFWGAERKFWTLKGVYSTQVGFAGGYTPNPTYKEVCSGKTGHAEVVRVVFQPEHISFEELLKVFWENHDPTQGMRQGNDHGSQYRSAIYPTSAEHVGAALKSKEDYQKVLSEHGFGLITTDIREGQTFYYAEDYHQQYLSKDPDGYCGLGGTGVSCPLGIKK

[15] = molecular target: Glucose-6-phosphate 1-dehydrogenase (Homo sapiens, UniProt P11413); experiment: human G6PD enzyme inhibitors, dose response, selectivity assay for P. falciparum G6PD inhibitor project, biochemical, fluorescence (AID 504792); format: functional
Coagulation factor XII = molecular target: T5, Coagulation factor XII (Homo sapiens, UniProt P00748); format: functional;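 note: activated factor XIIa alpha cleaving a fluorogenic AMC peptide substrate; inhibitor potency from loss of enzyme activity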
T5 sequence (P00748 whole entry): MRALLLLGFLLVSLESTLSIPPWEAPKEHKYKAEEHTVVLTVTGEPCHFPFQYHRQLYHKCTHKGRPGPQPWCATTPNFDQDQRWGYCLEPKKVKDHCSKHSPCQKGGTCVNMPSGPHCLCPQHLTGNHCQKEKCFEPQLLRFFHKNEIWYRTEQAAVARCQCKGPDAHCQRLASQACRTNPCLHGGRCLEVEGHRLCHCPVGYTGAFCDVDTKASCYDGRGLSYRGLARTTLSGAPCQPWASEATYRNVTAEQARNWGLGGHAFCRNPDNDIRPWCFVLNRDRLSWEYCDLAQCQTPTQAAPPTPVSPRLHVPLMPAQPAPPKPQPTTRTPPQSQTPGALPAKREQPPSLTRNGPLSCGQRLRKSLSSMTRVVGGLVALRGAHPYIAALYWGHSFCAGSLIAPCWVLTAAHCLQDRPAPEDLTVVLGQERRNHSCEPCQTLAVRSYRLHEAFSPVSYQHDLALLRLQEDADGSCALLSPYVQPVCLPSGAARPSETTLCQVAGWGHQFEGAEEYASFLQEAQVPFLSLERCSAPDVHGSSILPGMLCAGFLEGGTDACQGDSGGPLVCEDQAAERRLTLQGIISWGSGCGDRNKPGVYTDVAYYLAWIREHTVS

Melanocortin receptor 4, sequence (P32245 whole entry): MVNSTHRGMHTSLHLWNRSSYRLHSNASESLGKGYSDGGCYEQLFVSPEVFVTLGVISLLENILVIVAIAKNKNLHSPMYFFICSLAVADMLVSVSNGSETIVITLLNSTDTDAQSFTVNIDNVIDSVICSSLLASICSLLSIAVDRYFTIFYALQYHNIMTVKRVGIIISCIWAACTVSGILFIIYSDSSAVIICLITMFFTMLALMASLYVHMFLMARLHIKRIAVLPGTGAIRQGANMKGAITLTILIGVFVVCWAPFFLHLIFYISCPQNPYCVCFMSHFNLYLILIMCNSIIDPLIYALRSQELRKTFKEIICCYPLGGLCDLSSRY
Adenosylmethionine-8-amino-7-oxononanoate aminotransferase, sequence (P9WQ81 whole entry): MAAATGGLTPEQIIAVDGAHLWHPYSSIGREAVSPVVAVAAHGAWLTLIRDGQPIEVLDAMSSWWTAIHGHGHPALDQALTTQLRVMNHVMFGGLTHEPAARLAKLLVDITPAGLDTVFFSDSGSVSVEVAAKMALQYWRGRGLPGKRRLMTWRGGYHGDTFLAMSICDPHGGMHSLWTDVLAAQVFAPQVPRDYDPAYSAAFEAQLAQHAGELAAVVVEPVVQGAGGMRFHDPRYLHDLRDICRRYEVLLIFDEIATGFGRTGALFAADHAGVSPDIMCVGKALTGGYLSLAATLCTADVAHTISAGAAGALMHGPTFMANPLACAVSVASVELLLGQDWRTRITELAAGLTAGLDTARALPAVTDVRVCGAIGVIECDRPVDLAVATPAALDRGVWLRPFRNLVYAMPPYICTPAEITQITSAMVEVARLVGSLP
Beta-galactosidase, sequence (Q8VNN2 whole entry): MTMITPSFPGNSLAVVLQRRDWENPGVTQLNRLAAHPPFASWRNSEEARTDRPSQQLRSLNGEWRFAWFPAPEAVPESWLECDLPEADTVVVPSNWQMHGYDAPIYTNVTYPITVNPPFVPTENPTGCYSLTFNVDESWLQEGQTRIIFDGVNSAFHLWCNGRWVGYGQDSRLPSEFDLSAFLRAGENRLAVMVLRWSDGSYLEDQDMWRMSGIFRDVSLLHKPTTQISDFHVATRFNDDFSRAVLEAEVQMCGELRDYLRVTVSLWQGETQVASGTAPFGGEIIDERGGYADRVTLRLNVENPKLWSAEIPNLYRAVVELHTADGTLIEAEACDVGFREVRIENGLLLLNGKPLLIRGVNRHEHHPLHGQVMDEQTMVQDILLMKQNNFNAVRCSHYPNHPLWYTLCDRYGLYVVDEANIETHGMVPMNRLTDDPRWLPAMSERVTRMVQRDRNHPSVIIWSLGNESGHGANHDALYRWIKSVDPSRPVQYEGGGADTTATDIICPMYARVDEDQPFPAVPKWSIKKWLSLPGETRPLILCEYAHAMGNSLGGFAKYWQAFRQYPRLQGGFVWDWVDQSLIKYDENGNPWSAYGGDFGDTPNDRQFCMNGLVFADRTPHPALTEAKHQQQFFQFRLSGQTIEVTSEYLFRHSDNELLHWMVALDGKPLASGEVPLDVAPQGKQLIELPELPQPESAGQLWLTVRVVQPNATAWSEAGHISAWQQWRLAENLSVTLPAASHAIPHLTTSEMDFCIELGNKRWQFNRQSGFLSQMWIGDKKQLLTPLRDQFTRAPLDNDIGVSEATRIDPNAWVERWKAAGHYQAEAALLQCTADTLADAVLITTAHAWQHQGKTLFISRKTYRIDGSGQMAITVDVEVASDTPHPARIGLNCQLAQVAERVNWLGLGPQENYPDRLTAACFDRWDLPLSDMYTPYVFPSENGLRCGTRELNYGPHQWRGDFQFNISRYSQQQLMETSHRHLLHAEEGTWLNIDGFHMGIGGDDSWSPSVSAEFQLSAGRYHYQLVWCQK
Large T antigen, sequence (P03070 whole entry): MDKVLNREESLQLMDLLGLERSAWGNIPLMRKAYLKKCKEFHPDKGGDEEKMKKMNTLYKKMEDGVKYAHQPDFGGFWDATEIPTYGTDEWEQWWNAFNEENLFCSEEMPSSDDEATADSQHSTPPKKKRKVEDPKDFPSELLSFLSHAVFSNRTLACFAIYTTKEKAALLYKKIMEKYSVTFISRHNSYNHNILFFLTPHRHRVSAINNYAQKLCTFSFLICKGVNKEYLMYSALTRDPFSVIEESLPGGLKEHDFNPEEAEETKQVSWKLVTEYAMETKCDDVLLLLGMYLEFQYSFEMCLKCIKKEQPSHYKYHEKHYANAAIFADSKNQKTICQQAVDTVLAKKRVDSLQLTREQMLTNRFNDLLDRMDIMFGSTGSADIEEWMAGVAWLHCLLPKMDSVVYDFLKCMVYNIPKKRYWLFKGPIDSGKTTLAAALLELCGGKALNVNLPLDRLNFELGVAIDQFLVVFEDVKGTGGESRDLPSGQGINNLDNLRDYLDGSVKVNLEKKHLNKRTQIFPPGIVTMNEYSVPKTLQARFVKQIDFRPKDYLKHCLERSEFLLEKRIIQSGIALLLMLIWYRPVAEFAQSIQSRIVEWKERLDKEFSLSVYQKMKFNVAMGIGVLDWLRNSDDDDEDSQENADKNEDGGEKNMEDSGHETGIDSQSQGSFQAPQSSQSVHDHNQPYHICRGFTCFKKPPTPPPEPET
SWI/SNF-related matrix-associated actin-dependent regulator of chromatin subfamily A member 2, sequence (P51531 whole entry): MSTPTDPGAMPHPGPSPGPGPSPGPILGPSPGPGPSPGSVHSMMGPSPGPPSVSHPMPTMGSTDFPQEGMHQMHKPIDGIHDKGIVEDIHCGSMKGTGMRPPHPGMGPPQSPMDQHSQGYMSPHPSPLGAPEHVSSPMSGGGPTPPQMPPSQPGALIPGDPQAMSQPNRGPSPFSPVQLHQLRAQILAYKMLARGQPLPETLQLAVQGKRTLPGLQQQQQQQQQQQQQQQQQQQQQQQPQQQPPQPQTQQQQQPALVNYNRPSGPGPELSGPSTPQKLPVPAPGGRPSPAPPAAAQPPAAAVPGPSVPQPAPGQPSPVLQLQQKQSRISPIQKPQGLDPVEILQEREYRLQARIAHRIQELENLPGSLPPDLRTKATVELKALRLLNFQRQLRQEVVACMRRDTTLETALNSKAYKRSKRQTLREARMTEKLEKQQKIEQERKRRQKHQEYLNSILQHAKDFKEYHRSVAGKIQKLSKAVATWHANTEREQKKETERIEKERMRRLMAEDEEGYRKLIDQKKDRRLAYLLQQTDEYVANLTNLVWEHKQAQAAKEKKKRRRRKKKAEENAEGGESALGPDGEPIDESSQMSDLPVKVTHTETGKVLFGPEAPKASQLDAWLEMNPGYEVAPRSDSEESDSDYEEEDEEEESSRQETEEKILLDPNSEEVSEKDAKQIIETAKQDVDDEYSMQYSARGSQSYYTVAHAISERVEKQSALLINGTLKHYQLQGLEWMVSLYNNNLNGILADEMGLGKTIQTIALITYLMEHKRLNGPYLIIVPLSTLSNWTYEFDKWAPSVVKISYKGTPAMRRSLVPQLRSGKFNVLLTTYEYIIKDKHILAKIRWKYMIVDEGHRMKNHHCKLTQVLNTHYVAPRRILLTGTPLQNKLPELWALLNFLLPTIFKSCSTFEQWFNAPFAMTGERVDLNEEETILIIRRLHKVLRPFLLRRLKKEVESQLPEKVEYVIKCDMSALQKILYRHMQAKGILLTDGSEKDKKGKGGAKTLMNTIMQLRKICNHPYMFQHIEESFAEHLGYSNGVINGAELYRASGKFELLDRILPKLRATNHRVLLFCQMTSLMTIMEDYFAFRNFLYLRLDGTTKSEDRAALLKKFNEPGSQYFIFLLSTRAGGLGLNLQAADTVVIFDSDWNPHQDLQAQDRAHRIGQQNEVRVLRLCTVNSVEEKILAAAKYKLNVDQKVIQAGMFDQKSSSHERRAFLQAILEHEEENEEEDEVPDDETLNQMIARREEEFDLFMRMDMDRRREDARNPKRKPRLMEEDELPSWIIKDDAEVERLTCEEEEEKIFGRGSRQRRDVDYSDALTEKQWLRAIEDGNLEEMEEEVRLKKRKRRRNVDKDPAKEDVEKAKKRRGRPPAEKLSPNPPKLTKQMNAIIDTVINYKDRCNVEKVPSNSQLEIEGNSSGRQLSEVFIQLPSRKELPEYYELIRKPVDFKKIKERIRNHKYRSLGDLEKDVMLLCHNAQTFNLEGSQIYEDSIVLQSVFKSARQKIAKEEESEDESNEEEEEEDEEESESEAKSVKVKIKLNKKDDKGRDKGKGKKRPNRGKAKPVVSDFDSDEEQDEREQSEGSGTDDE
Glucose-6-phosphate 1-dehydrogenase, sequence (P11413 whole entry): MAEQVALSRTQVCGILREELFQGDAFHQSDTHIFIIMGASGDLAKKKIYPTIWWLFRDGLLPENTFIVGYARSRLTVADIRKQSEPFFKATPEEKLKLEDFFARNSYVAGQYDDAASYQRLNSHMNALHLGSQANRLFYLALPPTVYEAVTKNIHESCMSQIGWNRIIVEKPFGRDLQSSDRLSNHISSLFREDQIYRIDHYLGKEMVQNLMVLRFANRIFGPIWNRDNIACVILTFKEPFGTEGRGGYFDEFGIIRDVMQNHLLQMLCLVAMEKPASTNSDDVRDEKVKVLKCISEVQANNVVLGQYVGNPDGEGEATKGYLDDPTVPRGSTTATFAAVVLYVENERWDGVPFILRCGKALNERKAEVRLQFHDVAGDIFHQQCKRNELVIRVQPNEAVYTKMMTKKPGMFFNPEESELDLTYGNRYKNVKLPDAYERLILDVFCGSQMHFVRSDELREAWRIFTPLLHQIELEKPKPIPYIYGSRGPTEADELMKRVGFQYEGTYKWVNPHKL

SMILES: COc1ccc(NC(=O)c2ccc(-n3cncn3)c([N+](=O)[O-])c2)cc1OC
- AC50 [1]: 2.2 µM (active)

SMILES: Oc1nncc2c3ccccc3n(Cc3cccc(Cl)c3)c12
- IC50 [2]: 4.55 µM (active)
- IC50 [3]: 4.44 µM (active)

SMILES: Cc1ccc(C)c(NC(=O)COC(=O)c2cccc3c2C(=O)c2ccccc2C3=O)c1
- EC50 [4]: > 120 µM (not active)
- EC50 [5]: > 60 µM (not active)
- EC50 [6]: > 120 µM (not active)
- IC50 (Melanocortin receptor 4): > 64.6 µM (inactive)
- IC50 [7]: > 64.6 µM (inactive)

SMILES: O=C(CNc1ccc(Br)cc1)c1ccc(Br)s1
- EC50 (Beta-galactosidase): > 40 µM (inactive)
- IC50 [8]: 14.7 µM (active)
- EC50 [9]: > 91.1 µM (inactive)
- EC50 [10]: > 91.1 µM (inactive)

SMILES: Cc1ccc(NC(=O)Nc2ccc3c(c2)N(C)C(=O)CS3)nc1
- AC50 (HeLa): > 350 µM (inactive)

SMILES: CC(C)(C)OC(=O)N/N=C/c1ccc(N2CCOCC2)s1
- IC50 (Large T antigen): 13.2 µM (active)
- EC50 [11]: > 99 µM (inactive)
- EC50 [12]: 46.9 µM (inactive)
- IC50 [2]: 8.28 µM (active)
- IC50 [3]: 11.9 µM (active)

SMILES: COc1ccc(NC(=O)N[C@@H]2CC[C@@H](CCn3cc(-c4ccccn4)nn3)O[C@H]2CO)cc1
- AC50 [13]: 82.2 µM (active)

SMILES: Nn1c(SCc2nc3ccccc3[nH]2)nnc1-c1cccnc1
- AC50 [1]: 5.06 µM (active)

SMILES: Cc1ccc(C2=N/C(=C/N3CCOCC3)C(=O)O2)cc1
- IC50 [14]: 142 µM (inactive)

SMILES: COC(=O)c1c(NC(=O)C2COc3ccccc3O2)sc2c1CCN(C(=O)OC)C2 (stereo not given)
- IC50 (Melanocortin receptor 4): > 64.6 µM (inactive)
- IC50 [7]: > 64.6 µM (inactive)

SMILES: COc1ccc(C(=O)ON=C2C=C(C)C(=O)C(C)=C2)cc1
- IC50 [15]: > 80 µM (inactive)
- IC50 (Coagulation factor XII): 574 nM (active)
